Tests used:
[1] = tested on: Chlamydia pneumoniae; experiment: Clinical trial in CHD patients: serum anti-Chlamydia IgG (IgG-ELISA); type: in vivo, human; settings: for Chlamydia pneumoniae load in IgG-ELISA, ELISA reading: below 0.300-0.400 is considered negative
Procedure: (§1) 20 Coronary Heart Disease (CHD) patients who were positive for anti-Chlamydia IgG and hypercholesterolaemia were identified. These patients were randomised in 4 groups of 5 patients, and each of them received daily either in: • 1st group—7 mg of lycopene supplement (in 70 mg of tomato oleoresin), or • 2nd group—[…] of WP, or • 3rd group—mechanical mixture of 7 mg of lycopene (in 70 mg of tomato oleoresin), and 70 mg of WP, or • 4th group—WP-Lycosome comprising of 7 mg of lycopene (in 70 mg of tomato oleoresin) and 70 mg of WP.
(§2) Serum anti-Chlamydia IgG and total serum cholesterol were measured after 4 weeks.

[2] = Clinical trial in CHD patients: total serum cholesterol; type: in vivo, human
Procedure: as §1, §2

[3] = clinical; type: in vivo, human
Procedure: as §1

[4] = Pharmacokinetic study on volunteers: unmodified trans-resveratrol in blood; type: in vivo; settings: human, serum, po, 100 mg, 100 mg trans-Resveratol oral, individual volunteers ID 1, 2, read-out: AUC for 24 hours
Procedure: The group of 5 volunteers comprised of 2 female and 3 male clinically healthy Caucasian persons, age between 23 and 35 years. They were asked, before commencing this experiment, to go for 3-4 days “wash-out”, when consumption of any grape, wine, peanut, chocolate and other products which might contain them.
Blood samples were taken from their median cubital or cephalic veins at the baseline point. […]
After taking blood its serum was separated, aliquoted and stored at −80° C. for further testing.

[5] = difference after 4 weeks of administration

| AUC [4] | SMILES | number of sero-positive patients ([1]; 0 w) | Chlamydia pneumoniae load in IgG-ELISA, ELISA reading ([1]; 0 w, CHD patients) | number of sero-positive patients ([1]; 1 w) | number of sero-positive patients ([1]; 2 w) | number of sero-positive patients ([1]; 3 w) | time by which all patients were sero-negative / anti-Chlamydia IgG cleared from serum ([1]; 4-week trial) | number of sero-positive patients ([1]; 4 w) | Chlamydia pneumoniae load in IgG-ELISA, ELISA reading ([1]; 4 w of daily administration) | effect on level of Chlamydia infection (specific IgG), in words ([1]; CHD patients, daily for 4 weeks) | Total serum Cholesterol ([2]; 0 w) | Total serum Cholesterol ([2]; 4 w) | reduction of serum cholesterol ([2]; after 4 weeks) | Total serum Cholesterol, Δ [2, 5] | Total serum Lycopene, Δ [3, 5] | concentration at 0 w ([3]; human, in vivo) | concentration at 4 w ([3]; human, in vivo) |
| --- | --- | --- | --- | --- | --- | --- | --- | --- | --- | --- | --- | --- | --- | --- | --- | --- | --- |
|  | CC(C)=CCC/C(C)=C/C=C/C(C)=C/C=C/C(C)=C/C=C/C=C(C)/C=C/C=C(C)/C=C/C=C(\C)CCC=C(C)C [GA Lycopene, lycopene] | 10 | 0.997 ± 0.098 | (10) | (4) | (2) | in the last week of the trial | 0 | 0.288 ± 0.043 | some ability to reduce Chlamydia infection | 5.4 ± 0.23 mmol/L | 4.7 ± 0.21 mmol/L | 0.7 mmol/L | -0.7 mmol/L | +116 ng/ml | 179 ± 21 ng/mL | 295 ± 23 ng/mL |
| 432 ng·h/mL | Oc1ccc(/C=C/c2cc(O)cc(O)c2)cc1 [Resveratrol, 3,5,4′-trihydroxy-trans-stilbene] |  |  |  |  |  |  |  |  |  |  |  |  |  |  |  |  |

From patent publication US9737602B2, “Carotenoid particles and uses thereof” (IP SCIENCE LIMITED, priority 2011, dated 2017)
